In one assay the target is EGFR Δ19del/T790M/C797S (Homo sapiens, UniProt P00533, T790M/C797S, form not given). Put plainly: Kinase assay (mobility shift) for EGFR Δ19del/T790M/C797S. Format: biochemical. Conditions: read-out: EGFR Δ 19del/T790M/C797S IC50. On the procedure: (§1) Enzyme reaction protocol are as followed:
(§2) 1. Preparing 1* Kinase buffer as followed.
(§3) 2. Preparing Compound Concentration Gradient: Compounds were tested at a concentration of 300 nM, diluted to 100-fold final concentration in 100% DMSO solution in 96-well plates, and compounds were diluted 3 times with Precision, 10 concentrations. Each concentration of the compound was then further diluted to a 5-fold final concentration of the intermediate dilution solution using 1* Kinase buffer.
(§4) 3. 5 μL of each of the prepared intermediate dilution compounds was separately added to the compound wells of the 384-well plate, and each concentration was tested for duplicate wells; 5 μL of 5% DMSO was added to the negative control wells and the positive control wells, respectively.
(§5) 4. 2.5-fold final concentration of the kinase solution was prepared using 1*Kinase buffer.
(§6) 6. Centrifuge at 1000 rpm for 30 seconds, shake the reaction plate and incubate for 10 minutes at room temperature.
(§7) 8. 10 μL of a 2.5-fold final concentration of a mixed solution of ATP and a substrate was added to initiate the reaction.
(§8) 9. Centrifuge the 384-well plate at 1000 rpm for 30 seconds, mix by shaking, and incubate at room temperature for the corresponding time.
(§9) 10. Add 30 μL of the stop solution to stop the kinase reaction, centrifuge at 1000 rpm for 30 seconds, and mix by shaking.
(§10) 11. Read the conversion rate with Caliper EZ Reader.
(§11) Convert conversion values to inhibition values:
(§12) Percent inhibition=(max−conversion % sample)/(max−min)*100.
(§13) “max” stands for the mean value of the positive control well ratio; “min” stands for the mean value of the negative control well; conversion % sample: sample conversion reading.
(§14) Fit the data in log(inhibitor) vs. response Variable slope of GraphPad Prism 5 to obtain IC50 values.
(§15) Equation used is: Y=Bottom+(Top−Bottom)/(1+(IC50/X)*HillSlope)

The target of the next assay is EGFR L858R (Homo sapiens, UniProt P00533, L858R). Kind of assay: Kinase assay (mobility shift) for EGFR L858R. Format: biochemical. On the procedure:
as §1, §2, §3, §4, §5, §6, §7, §8, §9, §10, §11, §12, §13, §14, §15

The next assay has as its target EGFR T790M/L858R (Homo sapiens, UniProt P00533, L858R/T790M). Put plainly: Kinase assay (mobility shift) for EGFR T790M/L858R. In kind it is biochemical. On the procedure: as §1, §2, §3, §4, §5, §6, §7, §8, §9, §10, §11, §12, §13, §14, §15
For a further assay, the system named is H1975(L858R/T790M). Put plainly: H1975 cells proliferation assay. Format: cell-based. To be noted: Homo sapiens, NCI-H1975; cell proliferation, 72 h, CellTiter Glo; class symbols; read-out: H1975 IC50. On the procedure: (§16) Test 3 H1975 and HCC827 Cells Proliferation Assay
(§17) a) The medium was preheated in a 37° C. water bath in advance.
(§18) b) Remove the cryogenic vials from the liquid nitrogen tank, quickly put it into a 37° C. water bath, and completely melt it in 1 min.
(§19) c) Transfer the cell suspension to a 15 mL centrifuge tube containing 8 mL medium, centrifuge 1000 rpm, 5 min.
(§20) d) Discard the supernatant, resuspend the cells in 1 mL medium, and transfer to a 75 cm^2 flask containing 15 mL medium, culture the cells in an incubator at 37° C., 5% CO2.
(§21) b) Collect cell to a 15 mL centrifuged tube, centrifuge at 1000 rpm for 5 min. Discard the supernatant, count, and make the cell density at 1×10^4 cells/mL, then place it in a 37° C., 5% CO2 incubator.
(§22) b) The above compound solution was diluted 1:20 times with culture medium to prepare a 10 fold working solution;
(§23) a) Take cells in log phase growth, centrifuge at 1000 rpm for 5 min, then resuspend the cells with culture medium, then count cells;
(§24) b) Cells were seeded to 96-well cell culture plate with density at 2000 cells/well (suitable for H1975 cell) and at 2500 cells/well (suitable for HCC827 cell);
(§25) The blank control well was a culture medium (0.5% DMSO);
(§26) b) The cells were incubated for an additional 72 h in the incubator.
(§27) a) Remove the 96-well cell culture plate and add 50 μl of CTG reagent (CellTiter Glo kit, promega, Cat #G7573).
(§28) b) Plate was shaked for 2 min and then let it cool for 10 min at room temperature.
(§29) c) The Luminescence signal value was read using a PerkinElmer reader.
(§30) Experimental Data Analysis
(§31) Data were analyzed using GraphPad Prism 6.0 software to obtain a fitted curve of compound activity.
(§32) Y=Bottom+(Top−Bottom)/(1+10^((Log IC50−X)*HillSlope));
(§33) The cells proliferation assay results are expressed with IC50, shown as Table 2.
(ATP-based viability assays read luminescence as a measure of living cells.)

Another assay deals with HCC827(Δ19del). Put plainly: HCC827 cells proliferation assay. In kind it is cell-based. To be noted: Homo sapiens, HCC827; cell proliferation, 72 h, CellTiter Glo; class symbols; read-out: HCC827 IC50. On the procedure:
as §16, §17, §18, §19, §20, §21, §22, §23, §24, §25, §26, §27, §28, §29, §30, §31, §32, §33

Where a name gives a salt, the structure may show the parent alone. Some results are limits rather than exact numbers.

The source of these data is patent US20220227796A1, “EGFR INHIBITORS, COMPOSITIONS AND METHODS THERE OF” (Betta Pharmaceuticals Co., Ltd., priority 2019, published 2022).

Sequence of EGFR Δ19del/T790M/C797S (P00533 with tags, fused parts or gaps DEL746-750/T790M/C797S, form open): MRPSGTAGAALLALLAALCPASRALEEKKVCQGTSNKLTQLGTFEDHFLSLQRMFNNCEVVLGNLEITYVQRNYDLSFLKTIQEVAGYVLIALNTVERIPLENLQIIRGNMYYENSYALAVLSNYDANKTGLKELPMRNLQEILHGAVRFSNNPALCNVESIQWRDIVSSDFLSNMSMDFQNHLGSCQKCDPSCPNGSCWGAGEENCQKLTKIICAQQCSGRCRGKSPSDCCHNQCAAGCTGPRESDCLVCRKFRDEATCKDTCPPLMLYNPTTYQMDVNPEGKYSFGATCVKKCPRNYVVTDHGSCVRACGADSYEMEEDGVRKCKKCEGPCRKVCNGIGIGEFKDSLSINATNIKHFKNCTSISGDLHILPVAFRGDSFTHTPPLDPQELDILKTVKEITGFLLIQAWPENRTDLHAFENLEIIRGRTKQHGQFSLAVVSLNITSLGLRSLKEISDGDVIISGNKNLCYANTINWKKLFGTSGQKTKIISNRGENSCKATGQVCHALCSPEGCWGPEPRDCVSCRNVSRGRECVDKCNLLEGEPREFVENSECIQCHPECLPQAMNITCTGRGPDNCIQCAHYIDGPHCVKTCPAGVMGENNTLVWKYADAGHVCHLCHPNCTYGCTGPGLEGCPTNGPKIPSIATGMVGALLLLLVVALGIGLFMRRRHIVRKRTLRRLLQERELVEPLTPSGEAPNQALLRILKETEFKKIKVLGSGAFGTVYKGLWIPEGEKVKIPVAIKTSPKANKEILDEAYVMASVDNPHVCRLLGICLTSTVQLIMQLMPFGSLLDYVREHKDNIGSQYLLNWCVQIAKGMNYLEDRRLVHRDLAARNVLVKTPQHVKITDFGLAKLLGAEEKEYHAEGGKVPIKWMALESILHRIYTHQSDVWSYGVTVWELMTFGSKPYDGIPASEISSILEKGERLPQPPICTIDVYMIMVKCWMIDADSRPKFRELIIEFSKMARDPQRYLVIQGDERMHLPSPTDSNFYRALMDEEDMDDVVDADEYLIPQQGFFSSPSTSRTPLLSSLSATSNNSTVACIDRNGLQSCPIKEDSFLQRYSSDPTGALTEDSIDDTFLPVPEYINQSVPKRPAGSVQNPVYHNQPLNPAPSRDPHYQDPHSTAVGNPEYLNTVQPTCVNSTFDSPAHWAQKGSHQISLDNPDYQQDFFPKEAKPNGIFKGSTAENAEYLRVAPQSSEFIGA
Sequence of EGFR L858R (P00533 25-1210 L858R): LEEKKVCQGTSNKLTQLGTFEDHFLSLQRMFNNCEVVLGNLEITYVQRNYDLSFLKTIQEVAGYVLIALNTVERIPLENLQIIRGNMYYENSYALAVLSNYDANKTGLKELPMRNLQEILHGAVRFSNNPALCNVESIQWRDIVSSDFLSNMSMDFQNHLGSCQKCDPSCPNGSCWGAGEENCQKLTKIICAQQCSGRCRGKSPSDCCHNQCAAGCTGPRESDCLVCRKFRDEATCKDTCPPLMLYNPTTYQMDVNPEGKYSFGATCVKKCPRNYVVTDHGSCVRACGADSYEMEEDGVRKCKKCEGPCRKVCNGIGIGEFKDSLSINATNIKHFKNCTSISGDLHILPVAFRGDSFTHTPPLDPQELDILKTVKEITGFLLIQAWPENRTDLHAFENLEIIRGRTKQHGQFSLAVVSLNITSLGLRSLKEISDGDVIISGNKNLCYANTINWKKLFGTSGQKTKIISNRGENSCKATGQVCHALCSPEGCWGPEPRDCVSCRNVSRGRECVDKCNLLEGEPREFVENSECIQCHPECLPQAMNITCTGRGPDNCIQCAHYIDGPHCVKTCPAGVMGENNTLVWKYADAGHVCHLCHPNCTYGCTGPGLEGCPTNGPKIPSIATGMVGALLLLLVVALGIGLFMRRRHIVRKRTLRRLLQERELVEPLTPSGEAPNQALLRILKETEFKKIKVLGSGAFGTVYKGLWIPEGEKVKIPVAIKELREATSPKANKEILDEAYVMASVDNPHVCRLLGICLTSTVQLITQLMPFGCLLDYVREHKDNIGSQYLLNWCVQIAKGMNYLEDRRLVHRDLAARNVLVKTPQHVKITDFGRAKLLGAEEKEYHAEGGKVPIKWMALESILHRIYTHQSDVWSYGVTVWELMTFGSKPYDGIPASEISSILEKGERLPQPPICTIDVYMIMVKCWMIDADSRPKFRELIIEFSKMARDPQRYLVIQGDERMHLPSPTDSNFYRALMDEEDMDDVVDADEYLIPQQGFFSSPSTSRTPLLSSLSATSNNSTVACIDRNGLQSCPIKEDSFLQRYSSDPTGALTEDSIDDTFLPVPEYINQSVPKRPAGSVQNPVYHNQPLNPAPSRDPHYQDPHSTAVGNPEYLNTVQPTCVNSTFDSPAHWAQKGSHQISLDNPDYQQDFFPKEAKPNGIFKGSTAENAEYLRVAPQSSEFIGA
Sequence of EGFR T790M/L858R (P00533 25-1210 T790M/L858R): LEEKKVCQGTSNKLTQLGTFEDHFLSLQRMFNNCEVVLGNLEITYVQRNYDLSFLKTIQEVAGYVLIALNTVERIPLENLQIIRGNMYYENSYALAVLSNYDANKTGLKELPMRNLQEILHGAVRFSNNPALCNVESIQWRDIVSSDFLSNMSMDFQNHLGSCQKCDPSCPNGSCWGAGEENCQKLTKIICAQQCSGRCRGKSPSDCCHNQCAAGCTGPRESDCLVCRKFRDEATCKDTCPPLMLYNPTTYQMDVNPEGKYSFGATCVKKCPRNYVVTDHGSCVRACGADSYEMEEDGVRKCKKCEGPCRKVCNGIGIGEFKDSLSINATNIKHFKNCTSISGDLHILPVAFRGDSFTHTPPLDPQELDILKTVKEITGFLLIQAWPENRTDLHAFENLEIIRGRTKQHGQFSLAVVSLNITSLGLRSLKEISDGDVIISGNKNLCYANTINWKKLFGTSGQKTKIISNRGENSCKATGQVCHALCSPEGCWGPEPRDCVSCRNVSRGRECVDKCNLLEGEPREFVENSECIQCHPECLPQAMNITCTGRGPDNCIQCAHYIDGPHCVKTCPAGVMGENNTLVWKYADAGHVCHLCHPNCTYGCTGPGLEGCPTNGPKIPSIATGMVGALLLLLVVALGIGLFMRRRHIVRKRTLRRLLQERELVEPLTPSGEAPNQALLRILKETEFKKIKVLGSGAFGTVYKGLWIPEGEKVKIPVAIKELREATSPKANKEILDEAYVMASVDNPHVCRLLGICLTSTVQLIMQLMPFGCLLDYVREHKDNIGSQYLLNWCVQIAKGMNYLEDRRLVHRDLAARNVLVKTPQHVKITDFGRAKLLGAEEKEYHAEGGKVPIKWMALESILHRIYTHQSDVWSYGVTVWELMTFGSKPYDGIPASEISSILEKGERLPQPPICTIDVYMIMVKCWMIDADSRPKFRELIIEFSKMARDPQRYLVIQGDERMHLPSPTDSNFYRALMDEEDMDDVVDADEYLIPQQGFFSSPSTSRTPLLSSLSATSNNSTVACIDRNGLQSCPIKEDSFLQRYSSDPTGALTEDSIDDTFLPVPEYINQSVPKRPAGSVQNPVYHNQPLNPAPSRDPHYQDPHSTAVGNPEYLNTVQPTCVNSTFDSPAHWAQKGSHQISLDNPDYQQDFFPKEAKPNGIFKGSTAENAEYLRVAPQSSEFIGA

On to `C=CC(=O)Nc1cc(Nc2ncc(Cl)c(Nc3ccccc3P(C)(C)=O)n2)ccc1N1CC2(CCC(N(C)C)CC2)C1` [Compound 2, N-(5-((5-chloro-4-((2-(dimethylphosphoryl)phenyl)amino)pyrimidin-2-yl)amino)-2-(7-(dimethylamino)-2-azaspiro[3.5]nonan-2-yl)phenyl)acrylamide], for which the IC50 at EGFR Δ19del/T790M/C797S was under 0.01 µM; at EGFR L858R, 0.01 to 0.1 µM; on EGFR T790M/L858R, under 0.01 µM.
Regarding `C=CC(=O)Nc1cc(Nc2ncc(Cl)c(Nc3ccccc3P(C)(C)=O)n2)ccc1N1CC2(CC(N(C)C)C2)C1` [Compound 3, N-(5-((5-chloro-4-((2-(dimethylphosphoryl)phenyl)amino)pyrimidin-2-yl)amino)-2-(6-(dimethylamino)-2-azaspiro[3.3]heptan-2-yl)phenyl)acrylamide], the values for the IC50 on EGFR Δ19del/T790M/C797S, at EGFR L858R and at EGFR T790M/L858R were under 0.01 µM, 0.01 to 0.1 µM and under 0.01 µM, respectively.
Take `C=CC(=O)Nc1cc(Nc2nccc(Nc3ccccc3P(C)(C)=O)n2)ccc1N1CCC2(CC1)CC(N(C)C)C2` [Compound 4, N-(2-(2-(dimethylamino)-7-azaspiro[3.5]nonan-7-yl)-5-((4-((2-(dimethylphosphoryl)phenyl)amino)pyrimidin-2-yl)amino)phenyl)acrylamide]: the IC50 is under 0.01 µM on EGFR Δ19del/T790M/C797S, 0.01 to 0.1 µM on EGFR L858R and under 0.01 µM at EGFR T790M/L858R.
On to `C=CC(=O)Nc1cc(Nc2ncc(Cl)c(Nc3ccccc3P(C)(C)=O)n2)c(OC)cc1N1CCC2(CC1)CC(N(C)C)C2` [Compound 5, N-(5-((5-chloro-4-((2-(dimethylphosphoryl)phenyl)amino)pyrimidin-2-yl)amino)-2-(2-(dimethylamino)-7-azaspiro[3.5]nonan-7-yl)-4-methoxyphenyl)acrylamide], for which the IC50 at EGFR Δ19del/T790M/C797S was under 0.01 µM; on EGFR L858R, 0.01 to 0.1 µM; on EGFR T790M/L858R, under 0.01 µM; with H1975(L858R/T790M) it was under 0.01 µM; with HCC827(Δ19del), 0.01 to 0.05 µM.
For the compound `C=CC(=O)Nc1cc(Nc2ncc(Cl)c(Nc3ccccc3P(C)(C)=O)n2)ccc1N1CCC2(CC1)CN(C)C2` [Compound 14, N-(5-((5-chloro-4-((2-(dimethylphosphoryl)phenyl)amino)pyrimidin-2-yl)amino)-2-(2-methyl-2,7-diazaspiro[3.5]nonan-7-yl)phenyl)acrylamide hydrochloric acid salt], the IC50 on EGFR Δ19del/T790M/C797S is under 0.01 µM; on EGFR L858R, under 0.01 µM; at EGFR T790M/L858R it was under 0.01 µM; in the assay with H1975(L858R/T790M), 0.01 to 0.05 µM; in the assay with HCC827(Δ19del), 0.01 to 0.05 µM.
Turning to `C=CC(=O)Nc1cc(Nc2ncc(C)c(Nc3ccccc3P(C)(C)=O)n2)c(OC)cc1N(C)CCN(C)C` [Compound 21, N-(2-((2-(dimethylamino)ethyl)(methyl)amino)-5-((4-((2-(dimethylphosphoryl)phenyl)amino)-5-methylpyrimidin-2-yl)amino)-4-methoxyphenyl)acrylamide], the IC50 was 0.01 to 0.1 µM on EGFR Δ19del/T790M/C797S; under 0.01 µM at EGFR L858R; under 0.01 µM on EGFR T790M/L858R; 0.01 to 0.05 µM in the assay on H1975(L858R/T790M); under 0.01 µM with HCC827(Δ19del).
For the compound `C=CC(=O)Nc1cc(Nc2ncc(C)c(Nc3ccccc3P(C)(C)=O)n2)c(OC)cc1N1CCC(N2CCN(C)CC2)CC1` [Compound 22, N-(5-((4-((2-(dimethylphosphoryl)phenyl)amino)-5-methylpyrimidin-2-yl)amino)-4-methoxy-2-(4-(4-methylpiperazin-1-yl)piperidin-1-yl)phenyl)acrylamide], the IC50 is under 0.01 µM on EGFR Δ19del/T790M/C797S, 0.01 to 0.1 µM on EGFR L858R, under 0.01 µM on EGFR T790M/L858R and under 0.01 µM with HCC827(Δ19del).
Take `C=CC(=O)Nc1cc(Nc2ncc(Cl)c(Nc3ccccc3P(C)(C)=O)n2)c(OC)cc1N1CCC(N2CCN(C)CC2)CC1` [Compound 24, N-(5-((5-chloro-4-((2-(dimethylphosphoryl)phenyl)amino)pyrimidin-2-yl)amino)-4-methoxy-2-(4-(4-methylpiperazin-1-yl)piperidin-1-yl)phenyl)acrylamide]: the IC50 was under 0.01 µM on EGFR Δ19del/T790M/C797S, 0.01 to 0.1 µM at EGFR L858R, under 0.01 µM on EGFR T790M/L858R and 0.01 to 0.05 µM with HCC827(Δ19del).
Take `C=CC(=O)Nc1cc(Nc2ncc(Cl)c(Nc3ccccc3P(C)(C)=O)n2)c(OC)cc1N1CC2(CCC(N(C)C)CC2)C1` [Compound 26, N-(5-((5-chloro-4-((2-(dimethylphosphoryl)phenyl)amino)pyrimidin-2-yl)amino)-2-(7-(dimethylamino)-2-azaspiro[3.5]nonan-2-yl)-4-methoxyphenyl)acrylamide]: the IC50 on EGFR Δ19del/T790M/C797S was under 0.01 µM; on EGFR L858R it was 0.01 to 0.1 µM; at EGFR T790M/L858R, under 0.01 µM.
`C=CC(=O)Nc1cc(Nc2ncc(F)c(Nc3ccccc3P(C)(C)=O)n2)c(OC)cc1N1CCC(N2CCN(C)CC2)CC1` [Compound 28, N-(5-((4-((2-(dimethylphosphoryl)phenyl)amino)-5-fluoropyrimidin-2-yl)amino)-4-methoxy-2-(4-(4-methylpiperazin-1-yl)piperidin-1-yl)phenyl)acrylamide]: the IC50 at EGFR Δ19del/T790M/C797S lay within 0.01 to 0.1 µM; at EGFR L858R, 0.01 to 0.1 µM; at EGFR T790M/L858R, 0.01 to 0.1 µM; in the assay on HCC827(Δ19del), 0.01 to 0.05 µM.
`C=CC(=O)Nc1cc(Nc2ncc(F)c(Nc3ccccc3P(C)(C)=O)n2)ccc1N(C)CCN(C)C` [Compound 32, N-(2-((2-(dimethylamino)ethyl)(methyl)amino)-5-(4-(2-(dimethylphosphoryl)phenylamino)-5-fluoropyrimidin-2-ylamino)phenyl)acrylamide]: the IC50 is 0.01 to 0.1 µM at EGFR Δ19del/T790M/C797S; under 0.01 µM at EGFR L858R; under 0.01 µM at EGFR T790M/L858R; 0.01 to 0.05 µM in the assay with H1975(L858R/T790M); under 0.01 µM with HCC827(Δ19del).
With `C=CC(=O)Nc1cc(Nc2ncc(Cl)c(Nc3ccccc3P(C)(C)=O)n2)c(OC)cc1N1CCC2(CCC(N(C)C)CC2)CC1` [Compound 33, N-(5-(5-chloro-4-(2-(dimethylphosphoryl)phenylamino)pyrimidin-2-ylamino)-2-(9-(dimethylamino)-3-azaspiro[5.5]undecan-3-yl)-4-methoxyphenyl)acrylamide], the IC50 is under 0.01 µM at EGFR Δ19del/T790M/C797S; 0.01 to 0.1 µM at EGFR L858R; under 0.01 µM on EGFR T790M/L858R; 0.01 to 0.05 µM in the assay with H1975(L858R/T790M); 0.01 to 0.05 µM in the assay with HCC827(Δ19del).
For `C=CC(=O)Nc1cc(Nc2nccc(Nc3ccccc3P(C)(C)=O)n2)ccc1N1CCC(N2CCN(C)CC2)CC1` [Compound 38, N-(5-((4-((2-(dimethylphosphoryl)phenyl)amino)pyrimidin-2-yl)amino)-2-(4-(4-methylpiperazin-1-yl)piperidin-1-yl)phenyl)acrylamide], the IC50 on EGFR Δ19del/T790M/C797S, at EGFR L858R and on EGFR T790M/L858R was 0.01 to 0.1 µM each time.
On to `C=CC(=O)Nc1cc(Nc2nccc(Nc3ccccc3P(C)(C)=O)n2)c(OC)cc1N1CCC(N2CCN(C)CC2)CC1` [Compound 40, N-(5-((4-((2-(dimethylphosphoryl)phenyl)amino)pyrimidin-2-yl)amino)-4-methoxy-2-(4-(4-methylpiperazin-1-yl)piperidin-1-yl)phenyl)acrylamide], for which the IC50 on EGFR Δ19del/T790M/C797S, on EGFR L858R and at EGFR T790M/L858R was 0.01 to 0.1 µM in each case.
